Each block holds one compound with its values, some of them ahead of it.
How the values were obtained:
[1] = molecular target: human adenosine A1 receptor (Homo sapiens (Human), UniProt P30542); assay: Adenosine receptor binding assay, A1 ([3H]DPCPX inhibition binding on membranes); conditions: 1 nM [3H]DPCPX, 25° C., 1 h; Ki from IC50 by Cheng-Prusoff
Procedure: (§1) Inhibition binding assays were performed using 0.2 μg of membranes prepared from HEK293 cells infected with BacMam human adenosine A2A receptor or 1.4 μg of membranes prepared from HEK293 cells infected with BacMam human adenosine A1 receptor. Membranes were incubated in 50 mM Tris-HCl (HEK293-hA2A; pH 7.4) or 50 mM Tris-HCl, 100 mM NaCl, 10 mM MgCl2 (CHO-hA1; pH 7.4) in the presence of varying concentrations of test compound and 1 nM [^3H]ZM241385 (HEK293-hA2A) or [^3H]DPCPX (CHO-hA1) at 25° C. for 1 h. The assay was then terminated by rapid filtration onto GF/B grade Unifilter plates using a TomTec cell harvester, followed by 5×0.5 ml washes with ddH2O. Nonspecific binding was defined in the presence of 1 μM CGS15943 (HEK293-hA2A) or 1 μM DPCPX (CHO-hA1). Bound radioactivity was determined by liquid scintillation counting and inhibition curves were analysed using a four-parameter logistic equation. IC50 values were converted to Ki values with the Cheng-Prusoff equation using a KD value derived from saturation binding studies.

[2] = molecular target: human adenosine A2A receptor (Homo sapiens (Human), UniProt P29274); assay: Adenosine receptor binding assay, A2A ([3H]ZM241385 inhibition binding on HEK293 membranes); conditions: 1 nM [3H]ZM241385, 25° C., 1 h; Ki from IC50 by Cheng-Prusoff
Procedure: as §1

human CB1 receptor = human CB1 receptor (Homo sapiens (Human), UniProt P21554); assay: CB1 receptor antagonism, agonist-induced cAMP modulation (HTRF) in transfected CHO cells; assay type: cell-based; conditions: inhibition of control response to 3 nM CP 55940, cAMP HTRF, read-out: Antag IC50
Procedure: Receptor antagonism: Evaluation of the antagonist activity of compounds at the human CB1 receptor expressed in transfected CHO cells, determined by measuring their effects on agonist-induced cAMP modulation using the HTRF detection method.
The cells are suspended in HBSS buffer (Invitrogen) complemented with 20 mM HEPES (pH 7.4), then distributed in microplates at a density of 5.10^3 cells/well and preincubated for 5 min at room temperature in the presence of either of the following: HBSS (stimulated control), the reference antagonist AM 281 at 3 μM (basal control) or various concentrations (IC50 determination), or the test compounds.
Thereafter, the reference agonist CP 55940 and the adenylyl cyclase activator NKH 477 are added at respective final concentrations of 3 nM and 3 μM.
For basal control measurements, CP 55940 is omitted from the wells containing 3 μM AM 281.
Following 20 min incubation at 37° C., the cells are lysed and the fluorescence acceptor (D2-labeled cAMP) and fluorescence donor (anti-cAMP antibody labeled with europium cryptate) are added.
After 60 min at room temperature, the fluorescence transfer is measured at λex=337 nm and λem=620 and 665 nm using a microplate reader (Rubystar, BMG). The cAMP concentration is determined by dividing the signal measured at 665 nm by that measured at 620 nm (ratio).
The results are expressed as a percent inhibition of the control response to 3 nM CP 55940.
The standard reference antagonist is AM 281, which is tested in each experiment at several concentrations to generate a concentration-response curve from which its IC50 value is calculated.

Sequence of human CB1 receptor (P21554 whole entry): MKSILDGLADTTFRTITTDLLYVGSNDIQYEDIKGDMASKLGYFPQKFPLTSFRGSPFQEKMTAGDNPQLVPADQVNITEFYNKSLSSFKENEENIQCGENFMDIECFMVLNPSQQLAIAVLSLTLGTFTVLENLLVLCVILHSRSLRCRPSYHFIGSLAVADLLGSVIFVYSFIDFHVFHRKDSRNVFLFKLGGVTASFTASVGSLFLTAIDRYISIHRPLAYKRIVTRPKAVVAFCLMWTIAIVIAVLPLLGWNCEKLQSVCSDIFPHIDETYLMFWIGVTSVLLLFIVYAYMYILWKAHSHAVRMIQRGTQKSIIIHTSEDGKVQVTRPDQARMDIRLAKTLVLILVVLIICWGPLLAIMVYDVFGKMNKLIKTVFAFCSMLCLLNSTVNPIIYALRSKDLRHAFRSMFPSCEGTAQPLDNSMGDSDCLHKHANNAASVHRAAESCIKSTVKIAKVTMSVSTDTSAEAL
Sequence of human adenosine A1 receptor (P30542 whole entry): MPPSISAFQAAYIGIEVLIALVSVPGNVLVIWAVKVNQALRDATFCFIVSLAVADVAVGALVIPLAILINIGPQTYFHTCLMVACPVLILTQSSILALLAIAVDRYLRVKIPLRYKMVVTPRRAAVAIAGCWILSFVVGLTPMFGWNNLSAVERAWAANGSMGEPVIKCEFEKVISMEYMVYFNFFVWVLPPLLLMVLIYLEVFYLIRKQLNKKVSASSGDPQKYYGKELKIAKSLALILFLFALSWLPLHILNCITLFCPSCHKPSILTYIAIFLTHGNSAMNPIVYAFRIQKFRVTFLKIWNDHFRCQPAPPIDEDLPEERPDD
Sequence of human adenosine A2A receptor (P29274 whole entry): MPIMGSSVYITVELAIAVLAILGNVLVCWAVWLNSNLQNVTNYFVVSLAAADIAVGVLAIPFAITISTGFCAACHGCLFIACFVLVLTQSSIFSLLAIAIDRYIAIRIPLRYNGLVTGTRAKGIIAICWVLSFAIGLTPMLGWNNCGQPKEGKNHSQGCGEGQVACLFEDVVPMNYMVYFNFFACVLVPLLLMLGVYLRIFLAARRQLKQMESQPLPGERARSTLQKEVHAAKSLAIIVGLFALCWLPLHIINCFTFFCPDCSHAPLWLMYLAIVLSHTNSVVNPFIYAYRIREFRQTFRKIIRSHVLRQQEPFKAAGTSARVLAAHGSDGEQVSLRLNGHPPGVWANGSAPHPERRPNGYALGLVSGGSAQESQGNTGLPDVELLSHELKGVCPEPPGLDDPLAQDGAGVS

SMILES: CCCn1nc2c(N3C[C@@H](C)O[C@@H](C)C3)c(-c3ccc(F)cc3)nc(N)n2c1=O [Example 1-6, 5-amino-8-[(cis)-2,6-dimethylmorpholin-4-yl]-7-(4-fluorophenyl)-2-propyl-[1,2,4]triazolo[4,3-c]pyrimidin-3-one]
A1 pKi [1]: 6.4
A2A pKi [2]: 6.9

SMILES: C[C@@H]1CN(c2c(-c3ccccc3)nc(N)n3c(=O)n(C[C@@H]4COCCN4)nc23)C[C@H](C)O1 [Example 1-11, 5-amino-8-[(cis)-2,6-dimethylmorpholin-4-yl]-2-[[(3R)-morpholin-3-yl]methyl]-7-phenyl-[1,2,4]triazolo[4,3-c]pyrimidin-3-one]
A1 pKi [1]: <5.6
A2A pKi [2]: 6.7

SMILES: C[C@@H]1CN(c2c(-c3ccc(F)cc3)nc(N)n3c(=O)n(CCC(F)(F)F)nc23)C[C@H](C)O1 [Example 1-5, 5-amino-8-[(cis)-2,6-dimethylmorpholin-4-yl]-7-(4-fluorophenyl)-2-(3,3,3-trifluoropropyl)-[1,2,4]triazolo[4,3-c]pyrimidin-3-one]
A1 pKi [1]: <5.5
A2A pKi [2]: 7.3

SMILES: C[C@@H]1CN(c2c(-c3ccccc3)nc(N)n3c(=O)n(C[C@H]4COCCN4C)nc23)C[C@H](C)O1 [Example 1-12, 5-amino-8-[(cis)-2,6-dimethylmorpholin-4-yl]-2-[[(3S)-4-methylmorpholin-3-yl]methyl]-7-phenyl-[1,2,4]triazolo[4,3-c]pyrimidin-3-one]
A1 pKi [1]: <5.4
A2A pKi [2]: 6.9

SMILES: C[C@@H]1CN(c2c(-c3ccccc3)nc(N)n3c(=O)n(CCc4ccccc4)nc23)C[C@H](C)O1 [Example 1-17, 5-amino-8-[(cis)-2,6-dimethylmorpholin-4-yl]-7-phenyl-2-(2-phenylethyl)-[1,2,4]triazolo[4,3-c]pyrimidin-3-one]
A1 pKi [1]: <5.8
A2A pKi [2]: 7.2

SMILES: C[C@@H]1CN(c2c(-c3ccccc3)nc(N)n3c(=O)n(CCN4CCCCC4)nc23)C[C@H](C)O1 [Example 1-9, 5-amino-8-[(cis)-2,6-dimethylmorpholin-4-yl]-7-phenyl-2-[2-(1-piperidyl)ethyl]-[1,2,4]triazolo[4,3-c]pyrimidin-3-one]
A1 pKi [1]: <5.5
A2A pKi [2]: 6.7

SMILES: COc1ncccc1Cn1nc2c(N3C[C@@H](C)O[C@@H](C)C3)c(-c3ccccc3)nc(N)n2c1=O [Example 1-15, 5-amino-8-[(cis)-2,6-dimethylmorpholin-4-yl]-2-[(2-methoxy-3-pyridyl)methyl]-7-phenyl-[1,2,4]triazolo[4,3-c]pyrimidin-3-one]
A1 pKi [1]: 6.4
A2A pKi [2]: 8.4

SMILES: C[C@@H]1CN(c2c(-c3ccccc3)nc(N)n3c(=O)n(C[C@H]4CCCO4)nc23)C[C@H](C)O1 [Example 1-8, 5-amino-8-[(cis)-2,6-dimethylmorpholin-4-yl]-7-phenyl-2-[[(2R)-tetrahydrofuran-2-yl]methyl]-[1,2,4]triazolo[4,3-c]pyrimidin-3-one]
IC50 (human CB1 receptor): > 100 µM

SMILES: C[C@@H]1CN(c2c(-c3ccccc3)nc(N)n3c(=O)n(C[C@H]4COCCN4)nc23)C[C@H](C)O1 [Example 1-10, 5-amino-8-[(cis)-2,6-dimethylmorpholin-4-yl]-2-[[(3S)-morpholin-3-yl]methyl]-7-phenyl-[1,2,4]triazolo[4,3-c]pyrimidin-3-one]
A1 pKi [1]: <5.4
A2A pKi [2]: 6.9

SMILES: C[C@@H]1CN(c2c(-c3ccccc3)nc(N)n3c(=O)n(C[C@@H]4COCCN4C)nc23)C[C@H](C)O1 [Example 1-13, 5-amino-8-[(cis)-2,6-dimethylmorpholin-4-yl]-2-[[(3R)-4-methylmorpholin-3-yl]methyl]-7-phenyl-[1,2,4]triazolo[4,3-c]pyrimidin-3-one]
A1 pKi [1]: <5.4
A2A pKi [2]: 7.1

SMILES: C[C@@H]1CN(c2c(-c3ccccc3)nc(N)n3c(=O)n(CCC(F)F)nc23)C[C@H](C)O1 [Example 1-3, 5-amino-2-(3,3-difluoropropyl)-8-[(cis)-2,6-dimethylmorpholin-4-yl]-7-phenyl-[1,2,4]triazolo[4,3-c]pyrimidin-3-one]
A1 pKi [1]: <5.4
A2A pKi [2]: 7.1

SMILES: C[C@@H]1CN(c2c(-c3ccccc3)nc(N)n3c(=O)n(Cc4cccnn4)nc23)C[C@H](C)O1 [Example 1-16, 5-amino-8-[(cis)-2,6-dimethylmorpholin-4-yl]-7-phenyl-2-(pyridazin-3-ylmethyl)-[1,2,4]triazolo[4,3-c]pyrimidin-3-one]
A1 pKi [1]: 6.1
A2A pKi [2]: 7.2

Continued, values first:

A1 pKi [1]: <5.5
A2A pKi [2]: 7.4
SMILES: C[C@@H]1CC(c2c(-c3ccccc3)nc(N)n3c(=O)n(CCC(F)(F)F)nc23)C[C@H](C)O1 (stereo partly drawn) [Example 2-2, 5-amino-8-[(cis)-2,6-dimethyltetrahydropyran-4-yl]-7-phenyl-2-(3,3,3-trifluoropropyl)-[1,2,4]triazolo[4,3-c]pyrimidin-3-one]

IC50 (human CB1 receptor): 17.9 µM
SMILES: Cc1ocnc1Cn1nc2c(-c3cc(C)c4ncoc4c3)c(-c3ccccc3)nc(N)n2c1=O [Example 4-6, 5-amino-8-(4-methyl-1,3-benzoxazol-6-yl)-2-[(5-methyloxazol-4-yl)methyl]-7-phenyl-[1,2,4]triazolo[4,3-c]pyrimidin-3-one]

A1 pKi [1]: 6.9
A2A pKi [2]: 9.8
SMILES: Cc1ccc(Cn2nc3c(-c4cc(C)c5ncoc5c4)c(-c4ccc(F)cc4)nc(N)n3c2=O)nc1 [Example 4-3, 5-amino-7-(4-fluorophenyl)-8-(4-methyl-1,3-benzoxazol-6-yl)-2-[(5-methyl-2-pyridyl)methyl]-[1,2,4]triazolo[4,3-c]pyrimidin-3-one]

A1 pKi [1]: 7.7
A2A pKi [2]: 9.9
SMILES: Cc1nc(Cn2nc3c(-c4cc(C)c5ncoc5c4)c(-c4ccc(F)cc4)nc(N)n3c2=O)c(C)o1 [Example 4-7, 5-amino-2-[(2,5-dimethyloxazol-4-yl)methyl]-7-(4-fluorophenyl)-8-(4-methyl-1,3-benzoxazol-6-yl)-[1,2,4]triazolo[4,3-c]pyrimidin-3-one]

IC50 (human CB1 receptor): > 100 µM
SMILES: Cc1cc(-c2c(-c3ccccc3)nc(N)n3c(=O)n(Cc4ccc(F)cn4)nc23)cc(C)c1O [Example 3-1, 5-amino-2-[(5-fluoro-2-pyridyl)methyl]-8-(4-hydroxy-3,5-dimethyl-phenyl)-7-phenyl-[1,2,4]triazolo[4,3-c]pyrimidin-3-one]

A1 pKi [1]: 8.4
A2A pKi [2]: 9.6
SMILES: Cc1ocnc1Cn1nc2c(-c3cc(C)c4[nH]ncc4c3)c(-c3ccc(F)cc3)nc(N)n2c1=O [Example 4-8, 5-amino-7-(4-fluorophenyl)-8-(7-methyl-1H-indazol-5-yl)-2-[(5-methyloxazol-4-yl)methyl]-[1,2,4]triazolo[4,3-c]pyrimidin-3-one]

A1 pKi [1]: 8.7
A2A pKi [2]: 10.0
SMILES: [2H]c1c([2H])c([2H])c(-c2nc(N)n3c(=O)n(Cc4ncoc4C)nc3c2-c2cc(C)c3[nH]ncc3c2)c([2H])c1[2H] [Example 4-10, 5-amino-8-(7-methyl-1H-indazol-5-yl)-2-[(5-methyloxazol-4-yl)methyl]-7-(2,3,4,5,6-pentadeuteriophenyl)-[1,2,4]triazolo[4,3-c]pyrimidin-3-one]

Source: patent publication US12552799B2, “Triazolone compounds” (Nxera Pharma UK Limited, priority 2020, dated 2026)
